Test results taken from the NIST ThermoML archive (doi:10.1016/j.fluid.2011.08.020).
± gives the expanded uncertainty stated by the source.

Conditions: Liquid, Variable volume cell

Work on `CCCCCCCCCCCCCCCCCCCC` [eicosane] yielded a mass density (323.65 K, 7300 kPa) of 771 ± 8 kg/m3, a mass density (323.65 K, 14900 kPa) of 777 ± 8 kg/m3 and a mass density (323.65 K, 21400 kPa) of 784 ± 8 kg/m3. For the same molecule, the mass density (323.65 K, 27400 kPa) was 787 ± 8 kg/m3, the mass density (323.65 K, 34200 kPa) was 789 ± 8 kg/m3 and the mass density (422.85 K, 7400 kPa) was 711 ± 7 kg/m3. For the same molecule, the mass density (422.85 K, 14300 kPa) was 719 ± 7 kg/m3, the mass density (422.85 K, 20600 kPa) was 723 ± 7 kg/m3 and the mass density (422.85 K, 27900 kPa) was 730 ± 7 kg/m3. For the same molecule, the mass density (422.85 K, 34600 kPa) was 735 ± 7 kg/m3, the mass density (422.85 K, 54200 kPa) was 748 ± 8 kg/m3 and the mass density (422.85 K, 81600 kPa) was 765 ± 8 kg/m3. For the same molecule, the mass density (422.85 K, 109200 kPa) was 781 ± 8 kg/m3, the mass density (422.85 K, 136100 kPa) was 792 ± 8 kg/m3 and the mass density (422.85 K, 169500 kPa) was 806 ± 8 kg/m3. The mass density (422.85 K, 203100 kPa) was 818 ± 8 kg/m3, the mass density (422.85 K, 235500 kPa) was 829 ± 8 kg/m3 and the mass density (422.85 K, 260000 kPa) was 837 ± 8 kg/m3. It also gave a mass density (522.55 K, 16400 kPa) of 661 ± 7 kg/m3, a mass density (522.55 K, 28300 kPa) of 676 ± 7 kg/m3 and a mass density (522.55 K, 41900 kPa) of 691 ± 7 kg/m3. For the same molecule, the mass density (522.55 K, 55500 kPa) was 706 ± 7 kg/m3, the mass density (522.55 K, 69600 kPa) was 719 ± 7 kg/m3 and the mass density (522.55 K, 82500 kPa) was 727 ± 7 kg/m3. For the same molecule, the mass density (522.55 K, 109200 kPa) was 744 ± 7 kg/m3, the mass density (522.55 K, 138200 kPa) was 763 ± 8 kg/m3 and the mass density (522.55 K, 173100 kPa) was 777 ± 8 kg/m3. The mass density (522.55 K, 204700 kPa) was 791 ± 8 kg/m3, the mass density (522.55 K, 239800 kPa) was 805 ± 8 kg/m3 and the mass density (522.55 K, 258000 kPa) was 810 ± 8 kg/m3.

In the case of `CCCCCCCCCCCCCCCC` [hexadecane], the mass density (323.65 K, 14900 kPa) is reported as 758 ± 8 kg/m3, the mass density (323.65 K, 27900 kPa) is reported as 769 ± 8 kg/m3 and the mass density (323.65 K, 41500 kPa) is reported as 779 ± 8 kg/m3. It also gave a mass density (323.65 K, 55500 kPa) of 787 ± 8 kg/m3, a mass density (323.65 K, 69400 kPa) of 792 ± 8 kg/m3 and a mass density (323.65 K, 81300 kPa) of 799 ± 8 kg/m3. The mass density (323.65 K, 109700 kPa) was 807 ± 8 kg/m3, the mass density (422.85 K, 14100 kPa) was 700 ± 7 kg/m3 and the mass density (422.85 K, 27900 kPa) was 713 ± 7 kg/m3. It also gave a mass density (422.85 K, 41200 kPa) of 724 ± 7 kg/m3, a mass density (422.85 K, 55500 kPa) of 734 ± 7 kg/m3 and a mass density (422.85 K, 69800 kPa) of 743 ± 7 kg/m3. For the same molecule, the mass density (422.85 K, 82800 kPa) was 750 ± 8 kg/m3, the mass density (422.85 K, 108800 kPa) was 765 ± 8 kg/m3 and the mass density (422.85 K, 136900 kPa) was 778 ± 8 kg/m3. It also gave a mass density (422.85 K, 170700 kPa) of 792 ± 8 kg/m3, a mass density (422.85 K, 204300 kPa) of 804 ± 8 kg/m3 and a mass density (422.85 K, 236500 kPa) of 815 ± 8 kg/m3. The mass density (422.85 K, 262300 kPa) was 823 ± 8 kg/m3, the mass density (522.55 K, 15100 kPa) was 643 ± 6 kg/m3 and the mass density (522.55 K, 27100 kPa) was 660 ± 7 kg/m3. For the same molecule, the mass density (522.55 K, 42000 kPa) was 675 ± 7 kg/m3, the mass density (522.55 K, 55400 kPa) was 687 ± 7 kg/m3 and the mass density (522.55 K, 69100 kPa) was 698 ± 7 kg/m3. It also gave a mass density (522.55 K, 82100 kPa) of 707 ± 7 kg/m3, a mass density (522.55 K, 107900 kPa) of 723 ± 7 kg/m3 and a mass density (522.55 K, 135800 kPa) of 738 ± 7 kg/m3. The mass density (522.55 K, 170100 kPa) was 755 ± 8 kg/m3, the mass density (522.55 K, 203300 kPa) was 769 ± 8 kg/m3 and the mass density (522.55 K, 235800 kPa) was 782 ± 8 kg/m3. The mass density (522.55 K, 255000 kPa) was 788 ± 8 kg/m3.

`CCCCCCCCCCCCCCCCCC` [octadecane] showed a mass density (323.65 K, 7000 kPa) of 764 ± 8 kg/m3, a mass density (323.65 K, 14400 kPa) of 769 ± 8 kg/m3 and a mass density (323.65 K, 28300 kPa) of 778 ± 8 kg/m3. The mass density (323.65 K, 42200 kPa) was 788 ± 8 kg/m3, the mass density (323.65 K, 55600 kPa) was 797 ± 8 kg/m3 and the mass density (323.65 K, 68900 kPa) was 800 ± 8 kg/m3. For the same molecule, the mass density (422.85 K, 7700 kPa) was 702 ± 7 kg/m3, the mass density (422.85 K, 15100 kPa) was 711 ± 7 kg/m3 and the mass density (422.85 K, 29400 kPa) was 724 ± 7 kg/m3. For the same molecule, the mass density (422.85 K, 42500 kPa) was 732 ± 7 kg/m3, the mass density (422.85 K, 56100 kPa) was 741 ± 7 kg/m3 and the mass density (422.85 K, 73200 kPa) was 752 ± 8 kg/m3. The mass density (422.85 K, 84500 kPa) was 761 ± 8 kg/m3, the mass density (422.85 K, 110000 kPa) was 774 ± 8 kg/m3 and the mass density (422.85 K, 138500 kPa) was 787 ± 8 kg/m3. For the same molecule, the mass density (422.85 K, 171700 kPa) was 801 ± 8 kg/m3, the mass density (422.85 K, 206100 kPa) was 813 ± 8 kg/m3 and the mass density (422.85 K, 235500 kPa) was 823 ± 8 kg/m3. For the same molecule, the mass density (422.85 K, 255900 kPa) was 829 ± 8 kg/m3, the mass density (522.55 K, 15300 kPa) was 651 ± 7 kg/m3 and the mass density (522.55 K, 29400 kPa) was 668 ± 7 kg/m3. It also gave a mass density (522.55 K, 43200 kPa) of 681 ± 7 kg/m3, a mass density (522.55 K, 56400 kPa) of 692 ± 7 kg/m3 and a mass density (522.55 K, 70800 kPa) of 703 ± 7 kg/m3. It also gave a mass density (522.55 K, 84400 kPa) of 712 ± 7 kg/m3, a mass density (522.55 K, 110000 kPa) of 727 ± 7 kg/m3 and a mass density (522.55 K, 137800 kPa) of 742 ± 7 kg/m3. For the same molecule, the mass density (522.55 K, 170400 kPa) was 757 ± 8 kg/m3, the mass density (522.55 K, 205300 kPa) was 771 ± 8 kg/m3 and the mass density (522.55 K, 235700 kPa) was 782 ± 8 kg/m3. For the same molecule, the mass density (522.55 K, 257000 kPa) was 790 ± 8 kg/m3.
